{"source": "paper PMC2742655", "about": "(Bioorganic & medicinal chemistry letters, 2009)", "key": {"[1]": {"system": "P. falciparum W2 strain (chloroquine-resistant)", "assay": "Antiplasmodial activity, growth of P. falciparum W2 strain", "format": "cell-based", "settings": "Plasmodium falciparum, W2, read-out: IC50 W2"}, "[2]": {"system": "P. falciparum D6 (chloroquine sensitive, mefloquine resistant)", "assay": "Antiplasmodial activity, D6 strain", "format": "cell-based", "settings": "Plasmodium falciparum, D6, read-out: IC50 D6"}, "[3]": {"system": "P. falciparum V1/S (chloroquine and pyrimethamine resistant)", "assay": "microbe, parasite or virus in culture", "format": "cell-based", "settings": "Plasmodium falciparum, read-out: IC50 VI/S"}, "[4]": {"system": "P. falciparum FCR3 (atovaquone resistant)", "assay": "Antiplasmodial activity, FCR3 strain", "format": "cell-based", "settings": "Plasmodium falciparum, FCR3, read-out: IC50 FCR3"}, "[5]": {"system": "P. falciparum 3D7 (chloroquine-sensitive)", "assay": "Antiplasmodial activity, 3D7 strain", "format": "cell-based", "settings": "Plasmodium falciparum, 3D7, read-out: IC50 3D7"}, "[6]": {"molecular_target": "T1, falcipain-2 (FP-2) (Plasmodium falciparum, UniProt Q8I6U4)", "T1 sequence (Q8I6U4 244-484)": "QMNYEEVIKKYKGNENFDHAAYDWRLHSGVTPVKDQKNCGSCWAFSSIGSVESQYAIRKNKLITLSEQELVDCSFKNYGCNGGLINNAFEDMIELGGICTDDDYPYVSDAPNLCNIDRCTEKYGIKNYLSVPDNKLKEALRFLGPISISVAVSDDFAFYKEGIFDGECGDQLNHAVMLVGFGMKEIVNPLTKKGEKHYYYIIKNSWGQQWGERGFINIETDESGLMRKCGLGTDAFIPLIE", "format": "biochemical", "settings": "ratio 6d:12d:5, relative to 5 = 1"}, "[7]": {"system": "P. falciparum trophozoites (food vacuole)", "settings": "parasites incubated with compound; cited from earlier work"}}}
{"smiles": "CCN(CC)CCCC(C)Nc1ccnc2cc(Cl)ccc12", "note": "(stereo not drawn) [Chloroquine]", "values": [{"measurement": "IC50", "setting": "[1]", "value": "78.1 ± 6.91", "unit": "nM"}, {"measurement": "IC50", "setting": "[2]", "value": "16.9 ± 2.1", "unit": "nM"}, {"measurement": "IC50", "setting": "[3]", "value": "65 ± 4.1", "unit": "nM"}, {"measurement": "IC50", "setting": "[4]", "value": "51.1 ± 0.1", "unit": "nM"}, {"measurement": "IC50", "setting": "[5]", "value": "11.6 ± 1.1", "unit": "nM"}]}
{"smiles": "CC(C)C[C@H](NC(=O)N1CCOCC1)C(=O)N[C@H](/C=C/S(=O)(=O)c1ccccc1)CCc1ccccc1", "note": "[Compound 5, Mu-Leu-hPhe-VSPh]", "values": [{"measurement": "IC50 ratio for FP-2 inhibition", "setting": "[6]", "value": 1}]}
{"smiles": "CC(C)C[C@H](NC(=O)c1ccc(CO[C@H]2O[C@@H]3O[C@@]4(C)CC[C@H]5[C@H](C)CC[C@@H]([C@H]2C)[C@@]35OO4)cc1)C(=O)N[C@H](/C=C/S(=O)(=O)c1ccccc1)CCc1ccccc1", "note": "[Compound 6d]", "values": [{"measurement": "IC50 ratio for FP-2 inhibition", "setting": "[6]", "value": 1650}]}
{"smiles": "CC(C)C[C@H](NC(=O)OC(C)(C)C)C(=O)N[C@H](/C=C/S(=O)(=O)c1ccccc1)CCc1ccccc1", "note": "[Compound 12d]", "values": [{"measurement": "IC50 ratio for FP-2 inhibition", "setting": "[6]", "value": 70}]}
{"smiles": "CC(C)C[C@H](NC(=O)[C@H]1O[C@@H]1C(=O)O)C(=O)NCCCCN=C(N)N", "note": "[Compound E64, E64]", "values": [{"measurement": "swollen food vacuole abnormality (block in hemoglobin hydrolysis)", "setting": "[7]", "value": "observed"}]}
